Measured values from PubChem BioAssay (NCI).
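Cultured in 96-well plates, cells were exposed to test compound for 48 hours across five concentrations. GI50 = concentration required for 50% inhibition of growth. TGI is the concentration that stops growth completely.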

What was measured:
Assay in all cases: NCI-60 cell line screen, 48 h
[1] = test system: A498 renal
[2] = test system: IGROV1 ovarian
[3] = test system: NCI/ADR-RES ovarian
[4] = test system: OVCAR-5 ovarian
[5] = test system: RXF 393 renal
[6] = test system: SK-MEL-2 melanoma
[7] = test system: SN12C renal
[8] = test system: SNB-19 CNS
[9] = test system: UO-31 renal
[10] = test system: EKVX NSCLC

| Structure (SMILES) | TGI [1] [µM] | TGI [2] [µM] | TGI [3] [µM] | TGI [4] [µM] | TGI [5] [µM] | TGI [6] [µM] | TGI [7] [µM] | TGI [8] [µM] | TGI [9] [µM] | TGI [10] [µM] | GI50 [1] [µM] | GI50 [10] [µM] | GI50 [3] [µM] | GI50 [5] [µM] | GI50 [6] [µM] | GI50 [9] [µM] | GI50 [2] [µM] | GI50 [4] [µM] | GI50 [7] [µM] | GI50 [8] [µM] |
| --- | --- | --- | --- | --- | --- | --- | --- | --- | --- | --- | --- | --- | --- | --- | --- | --- | --- | --- | --- | --- |
| O=C1Nc2ccc(Cl)cc2/C1=C\c1c(Cl)nc2sccn12 | 8.66 | > 100 | 17.6 | 78.2 | > 100 | > 100 | > 100 | > 100 | > 100 |  |  |  |  |  |  |  |  |  |  |  |
| COC(=O)N1CC2C3C4CC(C(c5ccccc5)=C4c4ccccc4)C3C21 (centres undefined) |  | 45.6 | 35.4 | 91.2 | 39.9 | 50.5 | 33.1 | 57.5 | 26 | 36.7 |  |  |  |  |  |  |  |  |  |  |
| Cc1ccc(N(CC(=O)Nc2ccc(S(=O)(=O)N3CCC(N4CCCC4)CC3)cc2)S(=O)(=O)c2ccc(Cl)cc2)cc1 | 2.84 |  | 4.05 |  | 2.78 | 3.92 |  |  | 3.27 | 3.82 | 1.44 | 1.69 | 1.93 | 1.16 | 1.95 | 1.6 |  |  |  |  |
| CC(=O)NC1=C[C@@H]([C@H]2COC(C)(C)O2)OC1=O | > 100 | > 100 | > 100 | > 100 | > 100 | > 100 | > 100 | > 100 | > 100 | > 100 |  |  |  |  |  |  |  |  |  |  |
| O=C(Nc1ccc(-n2ccc3c(NC(=O)c4ccccc4)ncnc32)cc1)Nc1cccc(Cl)c1Cl | 2.04 | 3.39 | 7.29 | 2.84 | 1.79 | 3.88 | 2.32 | 5.84 | 1.56 | 4.59 | 0.752 | 1.3 | 1.58 | 0.796 | 1.33 | 0.786 | 1.06 | 1.04 | 1.08 | 1.44 |
| CCOC(=O)CC1(c2cccc3ccccc23)OC(=O)c2ccccc21 (centres undefined) | > 100 | > 100 |  | > 100 | 70.1 | > 100 | > 100 | > 100 | 65.9 | > 100 |  |  |  |  |  |  |  |  |  |  |
| C=C(OC1C(C)=C2C(C1OC(=O)CCCCCCC)C(C)(OC(C)=O)CC(OC(=O)CCC)C1(O)C2OC(=O)C1(C)O)/C(C)=C/C (centres undefined) | 3.29 | 11 | 6.51 | 8.64 | 1.53 | 0.0642 | 1.91 | 3.16 | 0.614 | 0.896 |  | < 0.0001 |  |  | < 0.0001 | 0.17 |  | < 0.0001 | 0.0105 |  |
